# Test results reported in patent publication US7820624B2, “Peptide ligands” (ICH Productions Limited, priority 2003, dated 2010).
# Assays:
# [1] = test system: human monocyte-derived immature dendritic cells; assay type: cell-based; conditions: 100,000 viral particles/cell
# Source text: Ad5 particles with the DC-binding peptides incorporated into the HI loop of the fibre protein were produced essentially as described previously ^12. Complementary oligonucleotides encoding the peptide sequences SHVKLNS [SEQ. ID. NO.:29] (5′ CC GGAAGCCACGTGAAGCTGAACAGCG 3′ [SEQ. ID. NO.:58] and 5′ CC GGCGCTGTTCAGCTTCACGTG GCTT 3′[SEQ. ID. NO.:59]) or APSNSTA [SEQ. ID. NO.:15] (5′ CC GGAGCCCCCAGCAACAGCACCGCCG 3′ [SEQ. ID. NO.:61] and 5′ CC GGCGGCGGTGCTGTTGCTGGG GGCT 3′ [SEQ. ID. NO.:62]) were synthesized (Operon Technologies, Alameda Calif. U.S.A.). The oligo pairs were then kinased, annealed, and ligated into the unique BspE1 site of pDV137 ^12, an expression construct encoding an Ad5 fibre protein with a double point mutant (KO1) which blocks CAR binding and a linker/restriction site in the HI loop, to create pDV178 (SHVKLNS) and pDV179 (APSNSTA). Following sequence confirmation, the plasmids were used to trans-complement the fibre-deleted vector Ad5.GFP.δF^18 by transient transfection into 293 cells as described ^19. Viral particles were purified by freeze/thaw lysis and CsCl gradient centrifugation and dialyzed into 40 mM TRIS-pH 8.1/0.9% NaCl/10% glycerol and stored at −80° C. Virus was quantified by protein assay (BioRad, Hercules Calif., U.S.A.) against BSA standards and using the relation 1 μg viral protein=4×10^9 viral particles.
# Retargeted adenoviruses carrying a peptide A or B were used for the transduction experiments described below. Wild type adenovirus type 5 and type 5 adenovirus having a KO1 fibre, all supplied by Dr Dan von Seggern, and as described in Nicklin 2001 Mol Ther 2001 Dec.; 4(6):534-42), were used as controls.
# Day 6 dendritic cells (see Example 1(v) above), or mouse bone marrow derived dendritic cells or mouse Sca1+ve stem cells, see (i) and (ii) above, were plated at 5×10^4 cells per well in a 48 well plate in 500 μl complete medium and allowed to settle for 3 hours at 37° C. Transductions were carried out in complete media, with virus being added at 100,000 viral particles/cell for 24 hours. Cells were harvested by scraping, spun down at 650 g (2000 rpm) for 5 min, resuspended in 300 μl PBS, and kept on ice before analysis. Viral transduction as determined by percentage of GFP positive cells was measured by FACS analysis. To measure percentage viability, 10 μl of 7-amino-actinomycin D (7AAD; Sigma, Poole, Dorset) was added immediately prior to analysis. Viral transduction of macrophages was carried out at 10,000 particles/cell in medium containing 2.5% FCS. For other cell types, cells were seeded overnight at 5×10^4 cells per well in 24-well plates in the appropriate media. Adenovirus was added in OptiMEM at 10,000 viral particles/cell, 1 ml per well in triplicate and incubated for 24 h at 37° C. Cells were then washed twice in PBS, trypsinised, triplicate wells pooled, spun down at 350×g for 5 min and resuspended in 300 μl PBS before analysis by flow cytometry where cell viability was to be measured, 10 μl 7AAD was added just prior to analysis.
# Cells were pooled from three separate transduction experiments for the calculation of results.
# [2] = test system: day 6 immature dendritic cells; assay: Maturation of adenovirus-transduced dendritic cells in response to LPS (marker flow cytometry); assay type: cell-based, human; conditions: LPS 50 ng/ml; virus 100,000 particles per cell
# Protocol: Day 6 immature dendritic cells were infected with retargeted Ad or Ad5 at 100,000 particles per cell in complete medium for 24 hours, with E. coli 026:B6 lipopolysaccharide (LPS) added following 3 hours incubation at a concentration of 50 ng/ml. As controls, dendritic cells were either incubated in complete medium for 24 hours or matured by the addition of LPS in complete medium for 24 hours, In all samples IL-4 and GM-CSF were present in the complete medium at 25 ng/ml and 100 ng/ml respectively. Cells were then phenotyped by staining as follows: a minimum of 5×10^4 cells in a volume of less than 2 ml medium were added to the recommended amount of antibody and incubated for 20 min on ice. 2 ml of ice-cold PBS was added before centrifugation at 300×g for 5 min at 4° C. The supernatant was flicked off and the pellet resuspended in 300 μl ice cold PBS. Cells from each sample were stained with antibodies to HLA-DR, CD40, CD80, CD83, CD86 and isotype matched control antibodies. Where cell viability was also measured, […] of 7AAD was added immediately prior to analysis. Cells were analysed by flow cytometry using a Epics XL (Beckman Coulter, High Wycombe, UK.) and the EXPO32 analysis software (Beckman Coulter).
substance,measurement,setting,value
SHVKLNS (Synthetic peptide binding to dendritic cells),"Transduction (% GFP positive cells), donor A","[1]; complete medium, 24 hours, donor A",64.2%
same,"Transduction (% GFP positive cells), donor B","[1]; complete medium, 24 hours, donor B",78.9%
same,"Percentage cell death, donor A","[1]; donor A, 7AAD",(12.0) %
same,"Percentage cell death, donor B","[1]; donor B, 7AAD",(13.3) %
same,CD40 positive cells,[2],15.6%
same,CD80 positive cells,[2],16.5%
same,CD83 positive cells,[2],24.6%
same,CD86 positive cells,[2],98.4%
same,HLA-DR positive cells,[2],58.1%
